Reference: patent US5705649A, “Protein staining compositions and methods” (Promega Corporation, priority 1995, dated 1998)

Assays:
[1] = Spectral analyses of Coomassie Blue R and Promega Green 1, 2, 3; type: physicochemical; settings: diluted 1:500 in 1:1 methanol:water
Procedure: The three solutions of Promega Green 1, 2, and 3, from examples 1, 2 and 3 respectively, were diluted approximately 500 fold into a 1:1 solution of methanol:water. The spectra of the resulting solutions and of a 12 μg/ml solution of Coomassie Blue R (in 1:1 methanol:water) were recorded from 700 to 340 nm versus 1:1 methanol:water. […] All of the derivatives gave essentially identical spectra; however, the maximal absorbance of the diluted Promega Green i was about twice that seen for the other derivatives. The derivatives had two peak absorptions in the region of the spectrum scanned, a major peak at around 630 nm and a second peak at around 440 nm. The following absorbances were recorded at the peaks near 630 nm for the three Promega Green dye solutions (diluted 1:500 in 1:1 methanol:water): […]

[2] = test system: Promega Mid-Range Molecular Weight Markers; assay: Detection of proteins during SDS-PAGE electrophoresis (dye in cathode buffer); settings: 10% SDS-PAGE, dye in cathode buffer, white plastic card behind gel
From the text: Solutions for the formation and electrophoresis of proteins were made according to the instructions given in Experiments in Gene Fusions, Silhavy, Berman, Enquist, Cold Spring Harbor Laboratory Press, Cold Spring Harbor, N.Y. with the following changes:
a) The SDS concentration in the upper and lower gel buffer components were reduced to result in a 0.05% final SDS concentration in the gel. Thus, the composition of 4× upper gel buffer was 0.5M Tris-HCl, pH 6.8, 0.2 % (w/v) sodium dodecylsulfate (SDS) and the composition of 4× lower gel buffer was 1.5M Tris-HCl, pHS.8, 0.2 % (w/v) SDS.
b) The SDS concentration in the electrophoretic (electrode) buffer was reduced to 0.04% final concentration. Thus, 4× electrode (anode or cathode) buffer was made by dissolving 60 g Tris base, 288 g glycine, and 8 g SDS dissolved in water and then diluting with water to 5 liters. Another name sometimes used for "electrode" buffer is "running" buffer.
c) The SDS concentration in the 2× sample buffer was reduced to 1% final SDS concentration. Thus, 2× sample buffer was made by mixing 0.5 ml of betamercaptoethanol, 0.25 ml of 0.1% (w/v) bromophenol blue, 1 ml of 10 % (w/v) SDS, 3 ml of water, and 5.3 ml of 2× glycerol buffer. 2× glycerol buffer is made by mixing 12.5 ml of 4× upper gel buffer and 20 ml of glycerol and diluting the resulting solution to 60 ml with water. Another name sometimes used for "sample" buffer is "loading" buffer.
d) Electrophoresis was performed using a BIO-RAD miniprotein II electrophoresis apparatus and gels were poured such that i cm of space was present between the bottom of the loading wells and the separating gel.
In other electrophoresis experiments reported in this application, the buffers used were as described above in this example. In some cases, as in this example, where preparation of a solution of dye in 150 ml of cathode (or electrode) buffer is specified, an amount of stock solution of a dye was first added to 150 ml of cathode buffer and then 125 ml of the resulting solution was used to fill the cathode buffer chamber (which holds 125 ml) in the electrophoresis apparatus. In other cases, where addition of stock solution of dye to the cathode buffer is specified without reference to the volume of cathode buffer or with reference to such volume being "125 ml," the stock solution was added directly to 125 ml of cathode buffer already in the cathode buffer chamber.
The samples used were prepared with Promega Mid-Range Molecular Weight Markers solution (Promega Corp., Madison, Wis., USA, Catalog No. V5231) (referred to hereinafter as "Promega Mid-Range [Molecular Weight] Markers or Standards") diluted into Sample Buffer. […]

[3] = test system: Promega Mid-Range Molecular Weight Markers; assay: Enhancement of staining of proteins in SDS-PAGE gels in 5% acetic acid; settings: 5% acetic acid; for lowest protein amount per band visible after enhancement: 1-2 minutes
Procedure: The gels described above were placed in 5% acetic acid following the termination of the electrophoretic separation. Within one to two minutes the gel developed a light green background but the protein bands dramatically darkened to a green color. […] Again, the color of the background darkened to a greater degree when greater concentrations of dye were used.
The gels above (from Example 7) were placed in 5% acetic acid following termination of the electrophoretic separation. Within 1-2 minutes, all the gels turned light green and the color of the stained bands intensified such that all proteins were visible--even in the lane containing 0.25 μg protein/band.
The gels above (Example 9) were placed in 5% acetic acid following termination of the electrophoretic separation. Within 1-2 minutes, all the gels turned light green and the color of the stained bands intensified such that all proteins were visible--even in the lanes containing 0.25 μg protein/band.

[4] = test system: Promega Mid Range Molecular Weight Standards; assay: Detection of denatured protein with dodecylamino and octylamino derivatives of fluorescein isothiocyanate
Procedure: A fifteen well, 12% gel was made as described in example 5 and was loaded with diluted Promega Mid Range Molecular Weight Standards to produce lanes containing samples having 200, 100, 80, 60, 40, 20 and 10 ng of protein per band. The gel was run as described in example 5 except that Promega Green 1 was not added to the cathode buffer. After electrophoresis, the gel was cut between lanes to produce gel segments containing fractionated protein samples at each of the concentrations listed above and these were placed in 30% methanol for 25-30 min at room temperature. The stock stain solutions of Example 33 were then diluted into distilled water at a concentration of 0.5% (v/v), and 50 ml of these solutions were used to stain the gels. After 1 hr incubation, the gels were visualized and photographed using a transilluminator. […] The gels were then placed in 5% methanol and allowed to destain overnight.
Gels were made and loaded as described in Example 34. The gels were incubated in 30% methanol for 15 min to fix the protein and then were incubated in 50 ml of a solution of the stains of Example 38 made by dilution of the stock stain solutions described in Example 38 to a concentration of 0.5% (v/v) in distilled water. After incubation in the staining solution for 1 hr, the gels were placed in 5% methanol and were visualized and photographed after 30 min by placement of the gel segment on a transilluminator. Photography of the segments was performed as described in Example 27. At this point, protein bands were visualized in the gel stained with the dodecylamino derivative at a concentration as low as 80 ng of protein per band.
The gel segments were then returned to the destaining solutions and allowed to incubate overnight. The segment of the gel stained with the octylamino derivative was transferred to a solution of 30% methanol following the overnight incubation and was revisualized and rephotographed after 1 hr of incubation in this methanol solution. At this point, protein was detected at fluorescently labeled bands to a concentration as low as 40 ng of protein per band.

[5] = 0.5% (v/v) stain 1 hr, 5% methanol 30 min

SMILES | Absorbance at the peak near 630 nm [1] | lowest protein amount per band visible while the gel was running [2] [µg] | lowest protein amount per band visible after enhancement [3] [µg] | staining after overnight incubation [3] | lowest protein per band visualized [4, 5] [ng] | background / visualization of bands [4, 5] | lowest protein per band detected ([4]; after overnight destaining, then 30% methanol 1 hr) [ng]
CCOc1ccc(N(C(C)=O)c2ccc(C(=C3C=CC(=[N+](CC)Cc4cccc(S(=O)(=O)[O-])c4)C=C3)c3ccc(N(CC)Cc4cccc(S(=O)(=O)O)c4)cc3)cc2)cc1 [Promega Green 2] | 1.37 | 1.0 | 0.25 | slightly faded | – | – | –
CCCCCCCCCCCC(=O)N(c1ccc(OCC)cc1)c1ccc(C(=C2C=CC(=[N+](CC)Cc3cccc(S(=O)(=O)[O-])c3)C=C2)c2ccc(N(CC)Cc3cccc(S(=O)(=O)O)c3)cc2)cc1 [Promega Green 3] | 0.83 | 1.0 | 0.25 | darker background color | – | – | –
CCCCCCCCCCCCNC(=S)Nc1ccc(-c2c3ccc(=O)cc-3oc3cc(O)ccc23)c(C(=O)O)c1 [dodecylamino derivative] | – | – | – | – | 80 | – | –
CCCCCCCCNC(=S)Nc1ccc(-c2c3ccc(=O)cc-3oc3cc(O)ccc23)c(C(=O)O)c1 [octylamino derivative] | – | – | – | – | – | high background fluorescence which prevented visualization of the protein bands | 40
